Patent US12673975B2, “Cyclic peptide, cell scaffold material, cell separating material, and medium” (FUJIFILM Corporation, priority 2019, dated 2026)
Starred links: 1 amine or outer side, 2 acyl side, 3 side chain; linkers in the order of their positions; H or OH if unused. Positions of bridges follow the written chain, without caps; N, C: chain ends. Non-standard residues stand in square brackets, D forms with d. Residues, ends and D or L forms follow the SMILES beside them. hCys = N[C@@H](CCS)C(=O)O; Dab = NCC[C@H](N)C(=O)O; X2 = O=C(C[*:1])[*:2]

Tests used:
[1] = biological target: human integrin αvβ5 (Homo sapiens, UniProt P06756+P18084); test: Evaluation of integrin binding property (surface plasmon resonance, Biacore 3000, immobilized cyclic peptide); conditions: SPR, 25° C., HEPES buffer with 5 mM magnesium chloride, integrin 30-1,000 nM; read-out: Performance evaluation: Binding activity (dissociation constant between the cyclic peptide and human integrin αvβ5)
Summary of the method: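 Human αvβ5 (30-1,000 nM) flowed for 10 min at 25 °C over immobilized cyclic peptide in 20 mM HEPES, 150 mM NaCl, 5 mM MgCl2, pH 7.4, followed by 30 min running buffer and 0.5 M EDTA regeneration. Dissociation constant from peptide minus unimmobilized channel, scored into standard grades.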

[2] = Evaluation of molecule stability (alkali treatment, residual rate by LC/MS); assay type: physicochemical; conditions: 500 μM peptide aqueous solution plus equivalent of 1 M sodium hydroxide, 15° C., 3 hours, LC/MS peak area
Summary of the method: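 Stability read as percent of summed LC/MS peak area remaining versus untreated peptide (C18, 45 °C, 10 mM ammonium formate pH 3, ESI positive/negative). Treatment: 500 μM peptide in water plus an equivalent of 1 M NaOH, 15 °C for 3 hours.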

Sequence of human integrin αvβ5 (P06756 31-1048): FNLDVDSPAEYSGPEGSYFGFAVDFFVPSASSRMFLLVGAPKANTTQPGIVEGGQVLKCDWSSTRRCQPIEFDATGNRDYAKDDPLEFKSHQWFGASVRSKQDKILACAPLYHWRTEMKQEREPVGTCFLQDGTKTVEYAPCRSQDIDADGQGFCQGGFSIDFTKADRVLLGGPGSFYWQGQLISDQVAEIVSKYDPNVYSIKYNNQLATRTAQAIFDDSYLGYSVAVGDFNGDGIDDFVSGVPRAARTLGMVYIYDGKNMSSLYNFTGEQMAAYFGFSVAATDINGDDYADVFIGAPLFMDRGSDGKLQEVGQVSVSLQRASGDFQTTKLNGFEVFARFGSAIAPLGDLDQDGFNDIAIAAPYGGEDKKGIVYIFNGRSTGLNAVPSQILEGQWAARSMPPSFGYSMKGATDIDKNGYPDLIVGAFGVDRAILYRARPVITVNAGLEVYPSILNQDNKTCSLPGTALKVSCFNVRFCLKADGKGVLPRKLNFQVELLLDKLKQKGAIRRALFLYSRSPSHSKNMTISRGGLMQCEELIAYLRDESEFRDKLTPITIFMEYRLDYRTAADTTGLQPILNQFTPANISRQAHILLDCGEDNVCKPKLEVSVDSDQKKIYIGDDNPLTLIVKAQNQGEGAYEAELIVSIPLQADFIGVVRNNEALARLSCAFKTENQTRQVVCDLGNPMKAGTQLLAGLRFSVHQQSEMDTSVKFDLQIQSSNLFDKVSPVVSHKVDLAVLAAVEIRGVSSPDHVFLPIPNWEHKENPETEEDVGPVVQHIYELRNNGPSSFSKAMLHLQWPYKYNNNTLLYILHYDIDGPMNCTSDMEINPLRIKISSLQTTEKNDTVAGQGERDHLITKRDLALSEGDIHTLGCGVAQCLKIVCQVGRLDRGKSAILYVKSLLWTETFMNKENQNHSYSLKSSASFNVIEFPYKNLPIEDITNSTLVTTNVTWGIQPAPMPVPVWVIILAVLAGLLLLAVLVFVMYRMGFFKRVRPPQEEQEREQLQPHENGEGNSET
Sequence of human integrin αvβ5 (P18084 24-799): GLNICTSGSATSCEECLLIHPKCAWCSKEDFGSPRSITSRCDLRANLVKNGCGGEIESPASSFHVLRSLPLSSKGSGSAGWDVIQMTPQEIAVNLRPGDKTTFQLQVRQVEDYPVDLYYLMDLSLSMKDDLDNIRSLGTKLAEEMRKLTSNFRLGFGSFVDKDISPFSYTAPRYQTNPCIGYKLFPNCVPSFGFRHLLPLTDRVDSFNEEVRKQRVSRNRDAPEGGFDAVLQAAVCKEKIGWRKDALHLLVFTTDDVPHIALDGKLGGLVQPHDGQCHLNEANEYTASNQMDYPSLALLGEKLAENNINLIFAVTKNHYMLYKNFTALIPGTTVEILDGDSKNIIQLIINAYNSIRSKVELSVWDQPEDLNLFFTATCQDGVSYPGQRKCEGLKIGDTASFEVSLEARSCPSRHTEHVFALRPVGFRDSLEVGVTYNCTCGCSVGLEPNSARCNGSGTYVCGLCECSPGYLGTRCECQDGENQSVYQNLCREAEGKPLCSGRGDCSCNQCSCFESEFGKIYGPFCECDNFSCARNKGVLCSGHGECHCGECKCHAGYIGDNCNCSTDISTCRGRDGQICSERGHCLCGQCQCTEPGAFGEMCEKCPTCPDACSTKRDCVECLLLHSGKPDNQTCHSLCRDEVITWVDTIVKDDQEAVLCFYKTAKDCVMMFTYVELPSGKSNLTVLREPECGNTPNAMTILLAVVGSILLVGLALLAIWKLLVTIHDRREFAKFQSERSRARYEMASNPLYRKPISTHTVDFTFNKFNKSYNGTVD

Row | Structure (SMILES) | Kd [1] | Performance evaluation: Stability (residual rate of cyclic peptide after alkali treatment) [2]
1 | CC[C@H](C)[C@@H]1NC(=O)[C@@H](NC(=O)[C@H](C)NC(=O)[C@H](CCCCN)NC(=O)[C@H](CCCCN)NC(=O)[C@@H](N)CCCCN)CCSCC(=O)NCC[C@@H](C(=O)N[C@@H](C)C(=O)O)NC(=O)[C@H](CCCNC(=N)N)NC(=O)[C@@H]2CCCN2C(=O)[C@H]([C@@H](C)O)NC(=O)[C@H](CC(=O)O)NC(=O)CNC(=O)[C@H](CCCNC(=N)N)NC(=O)[C@@H]2CCCN2C1=O [Cyclic peptide 80, KKKA-(Hcy)-IPRGDTPR(Dab(acetyl))A] (H-KKKA[hCys]IPRGDTPR[Dab]A-OH; linker 5-14 via X2) | 50 to 100 nM | A (The residual rate of the cyclic peptide is 70% or more.)
2 | CC[C@H](C)[C@@H]1NC(=O)[C@@H](NC(=O)[C@H](C)NC(=O)[C@H](CCCCN)NC(=O)[C@H](CCCCN)NC(=O)[C@@H](N)CCCCN)CCSCC(=O)NCC[C@@H](C(=O)N[C@@H](C)C(=O)O)NC(=O)[C@H](CCCNC(=N)N)NC(=O)[C@H](Cc2ccc(O)cc2)NC(=O)[C@H]([C@@H](C)O)NC(=O)[C@H](CC(=O)O)NC(=O)CNC(=O)[C@H](CCCNC(=N)N)NC(=O)[C@@H]2CCCN2C1=O [Cyclic peptide 81, KKKA-(Hcy)-IPRGDTYR(Dab(acetyl))A] (H-KKKA[hCys]IPRGDTYR[Dab]A-OH; linker 5-14 via X2) | 50 to 100 nM | A (The residual rate of the cyclic peptide is 70% or more.)
3 | CC[C@H](C)[C@@H]1NC(=O)[C@@H](NC(=O)[C@H](C)NC(=O)[C@H](CCCCN)NC(=O)[C@H](CCCCN)NC(=O)[C@@H](N)CCCCN)CCSCC(=O)NCC[C@@H](C(=O)N[C@@H](C)C(=O)O)NC(=O)[C@H]([C@@H](C)O)NC(=O)[C@H](Cc2ccccc2)NC(=O)[C@H]([C@@H](C)O)NC(=O)[C@H](CC(=O)O)NC(=O)CNC(=O)[C@H](CCCNC(=N)N)NC(=O)[C@@H]2CCCN2C1=O [Cyclic peptide 82, KKKA-(Hcy)-IPRGDTFT(Dab(acetyl))A] (H-KKKA[hCys]IPRGDTFT[Dab]A-OH; linker 5-14 via X2) | 50 to 100 nM | A (The residual rate of the cyclic peptide is 70% or more.)
4 | CC[C@H](C)[C@@H]1NC(=O)[C@@H](NC(=O)[C@H](C)NC(=O)[C@H](CCCCN)NC(=O)[C@H](CCCCN)NC(=O)[C@@H](N)CCCCN)CCSCC(=O)NCC[C@@H](C(=O)N[C@@H](C)C(=O)O)NC(=O)[C@H](CO)NC(=O)[C@H](Cc2ccccc2)NC(=O)[C@H]([C@@H](C)O)NC(=O)[C@H](CC(=O)O)NC(=O)CNC(=O)[C@H](CCCNC(=N)N)NC(=O)[C@@H]2CCCN2C1=O [Cyclic peptide 83, KKKA-(Hcy)-IPRGDTFS(Dab(acetyl))A] (H-KKKA[hCys]IPRGDTFS[Dab]A-OH; linker 5-14 via X2) | < 50 nM | A (The residual rate of the cyclic peptide is 70% or more.)
5 | CC[C@H](C)[C@@H]1NC(=O)[C@@H](NC(=O)CNC(=O)[C@H](CCCCN)NC(=O)[C@H](CCCCN)NC(=O)[C@@H](N)CCCCN)CCSCC(=O)NCC[C@@H](C(=O)NCC(=O)O)NC(=O)[C@H](C)NC(=O)[C@H](Cc2ccccc2)NC(=O)[C@H]([C@@H](C)O)NC(=O)[C@H](CC(=O)O)NC(=O)CNC(=O)[C@H](CCCNC(=N)N)NC(=O)[C@@H]2CCCN2C1=O [Cyclic peptide 84, KKKG-(Hcy)-IPRGDTFA(Dab(acetyl))G] (H-KKKG[hCys]IPRGDTFA[Dab]G-OH; linker 5-14 via X2) | < 50 nM | A (The residual rate of the cyclic peptide is 70% or more.)
6 | CC[C@H](C)[C@@H]1NC(=O)[C@@H](NC(=O)[C@H](C)NC(=O)[C@H](CCCCN)NC(=O)[C@H](CCCCN)NC(=O)[C@@H](N)CCCCN)CCSCC(=O)NCC[C@@H](C(=O)NCC(=O)O)NC(=O)[C@H](C)NC(=O)[C@H](Cc2ccccc2)NC(=O)[C@H]([C@@H](C)O)NC(=O)[C@H](CC(=O)O)NC(=O)CNC(=O)[C@H](CCCNC(=N)N)NC(=O)[C@@H]2CCCN2C1=O [Cyclic peptide 85, KKKA-(Hcy)-IPRGDTFA(Dab(acetyl))G] (H-KKKA[hCys]IPRGDTFA[Dab]G-OH; linker 5-14 via X2) | < 50 nM | A (The residual rate of the cyclic peptide is 70% or more.)
7 | CC[C@H](C)[C@@H]1NC(=O)[C@@H](NC(=O)CNC(=O)[C@H](CCCCN)NC(=O)[C@H](CCCCN)NC(=O)[C@@H](N)CCCCN)CCSCC(=O)NCC[C@@H](C(=O)N[C@@H](C)C(=O)O)NC(=O)[C@H](C)NC(=O)[C@H](Cc2ccccc2)NC(=O)[C@H]([C@@H](C)O)NC(=O)[C@H](CC(=O)O)NC(=O)CNC(=O)[C@H](CCCNC(=N)N)NC(=O)[C@@H]2CCCN2C1=O [Cyclic peptide 86, KKKG-(Hcy)-IPRGDTFA(Dab(acetyl))A] (H-KKKG[hCys]IPRGDTFA[Dab]A-OH; linker 5-14 via X2) | < 50 nM | A (The residual rate of the cyclic peptide is 70% or more.)
8 | CC[C@H](C)[C@@H]1NC(=O)[C@@H](NC(=O)[C@H](C)NC(=O)[C@H](CCCCN)NC(=O)[C@H](CCCCN)NC(=O)[C@@H](N)CCCCN)CCSCC(=O)NCC[C@@H](C(=O)N[C@@H](C)C(=O)O)NC(=O)[C@H](C)NC(=O)[C@H](Cc2ccccc2)NC(=O)[C@H]([C@@H](C)O)NC(=O)[C@H](CC(=O)O)NC(=O)CNC(=O)[C@H](CCCNC(=N)N)NC(=O)[C@@H]2CCCN2C1=O [Cyclic peptide 87, KKKA-(Hcy)-IPRGDTFA(Dab(acetyl))A] (H-KKKA[hCys]IPRGDTFA[Dab]A-OH; linker 5-14 via X2) | < 50 nM | A (The residual rate of the cyclic peptide is 70% or more.)
9 | CC[C@H](C)[C@@H]1NC(=O)[C@@H](NC(=O)[C@H](C)NC(=O)[C@H](CCCCN)NC(=O)[C@H](CCCCN)NC(=O)[C@@H](N)CCCCN)CCSCC(=O)NCC[C@@H](C(=O)N[C@@H](C)C(=O)O)NC(=O)CNC(=O)[C@H](Cc2ccccc2)NC(=O)[C@H]([C@@H](C)O)NC(=O)[C@H](CC(=O)O)NC(=O)CNC(=O)[C@H](CCCNC(=N)N)NC(=O)[C@@H]2CCCN2C1=O [Cyclic peptide 88, KKKA-(Hcy)-IPRGDTFG(Dab(acetyl))A] (H-KKKA[hCys]IPRGDTFG[Dab]A-OH; linker 5-14 via X2) | < 50 nM | A (The residual rate of the cyclic peptide is 70% or more.)
10 | CC(C)[C@@H]1NC(=O)[C@@H](NC(=O)[C@H](C)NC(=O)[C@H](CCCCN)NC(=O)[C@H](CCCCN)NC(=O)[C@@H](N)CCCCN)CCSCC(=O)NCC[C@@H](C(=O)N[C@@H](C)C(=O)O)NC(=O)[C@H](CCCNC(=N)N)NC(=O)[C@H](Cc2ccccc2)NC(=O)[C@H]([C@@H](C)O)NC(=O)[C@H](CC(=O)O)NC(=O)CNC(=O)[C@H](CCCNC(=N)N)NC(=O)[C@H]([C@@H](C)O)NC1=O [Cyclic peptide 89, KKKA-(Hcy)-VTRGDTFR(Dab(acetyl))A] (H-KKKA[hCys]VTRGDTFR[Dab]A-OH; linker 5-14 via X2) | < 50 nM | A (The residual rate of the cyclic peptide is 70% or more.)
11 | CC[C@H](C)[C@@H]1NC(=O)[C@@H](NC(=O)[C@H](C)NC(=O)[C@H](CCCCN)NC(=O)[C@H](CCCCN)NC(=O)[C@@H](N)CCCCN)CCSCC(=O)NCC[C@@H](C(=O)N[C@@H](C)C(=O)O)NC(=O)[C@H](C)NC(=O)[C@H](Cc2ccccc2)NC(=O)[C@H](C)NC(=O)[C@H](CC(=O)O)NC(=O)CNC(=O)[C@H](CCCNC(=N)N)NC(=O)[C@@H]2CCCN2C1=O [Cyclic peptide 90, KKKA-(Hcy)-IPRGDAFA(Dab(acetyl))A] (H-KKKA[hCys]IPRGDAFA[Dab]A-OH; linker 5-14 via X2) | < 50 nM | A (The residual rate of the cyclic peptide is 70% or more.)
12 | CC(C)[C@@H]1NC(=O)[C@@H](NC(=O)[C@H](C)NC(=O)[C@H](CCCCN)NC(=O)[C@H](CCCCN)NC(=O)[C@@H](N)CCCCN)CCSCC(=O)NCC[C@@H](C(=O)N[C@@H](C)C(=O)O)NC(=O)[C@H](C)NC(=O)[C@H](Cc2ccccc2)NC(=O)[C@H](C)NC(=O)[C@H](CC(=O)O)NC(=O)CNC(=O)[C@H](CCCNC(=N)N)NC(=O)[C@@H]2CCCN2C1=O [Cyclic peptide 91, KKKA-(Hcy)-VPRGDAFA(Dab(acetyl))A] (H-KKKA[hCys]VPRGDAFA[Dab]A-OH; linker 5-14 via X2) | < 50 nM | A (The residual rate of the cyclic peptide is 70% or more.)
13 | CC[C@H](C)[C@@H]1NC(=O)[C@@H](NC(=O)[C@H](C)NC(=O)[C@H](CCCCN)NC(=O)[C@H](CCCCN)NC(=O)[C@@H](N)CCCCN)CCSCC(=O)NCC[C@@H](C(=O)N[C@@H](C)C(=O)O)NC(=O)[C@H](C)NC(=O)[C@H](Cc2ccccc2)NC(=O)[C@H](CO)NC(=O)[C@H](CC(=O)O)NC(=O)CNC(=O)[C@H](CCCNC(=N)N)NC(=O)[C@@H]2CCCN2C1=O [Cyclic peptide 92, KKKA-(Hcy)-IPRGDSFA(Dab(acetyl))A] (H-KKKA[hCys]IPRGDSFA[Dab]A-OH; linker 5-14 via X2) | < 50 nM | A (The residual rate of the cyclic peptide is 70% or more.)
